Test results as given in patent US10154813B1, “Method and apparatus for patient skin color monitoring and drug efficacy measurement” (priority 2017, dated 2018).
“And” between values parts separate entries of the source, which are not always exact repeats. Equal values may be shown once.

Tested on: microvascular endothelium (skin, right arm, anterior position) of Congestive Heart Failure patients
Assay: Skin colorimetry (a, b, L) before and after application of “μ” in Congestive Heart Failure patients on Valsartan, monthly for 9 months
Type: in vivo, human
Set-up: key to a. Wet after “μ”: a = red/green colour coordinate (colorimeter); key to b (Wet): b = yellow/blue colour coordinate (colorimeter)
Settings: for L (Wet) / a. Wet after “μ” / b (Wet): wet after μ; for L / a / b: baseline before μ
Excerpt: As stated above, one available quantitative color system is the L*a*b* color space or Hunter L/a/b color space, which can be visualized as a rectangular 3D coordinate system. L indicates lightness, a is the red/green coordinate, and b is the yellow/blue coordinate. L can have a value from 0 (black) to 100 (perfect reflection). The a and b axes have no numerical limits. Coordinate a is positive when red, and negative when green. Positive b is yellow, and negative b is blue. Colors can be described numerically using numerical values for L, a, and b. Differences between two colors can be quantified for each of the individual L/a/b values (ΔL, Δa, Δb). Overall differences between two colors can be derived numerically based on the three Δ values.
μ=drug applied before colorimeter and/or spectrophotometer measurements.
L1, a1, b1=Initial measurement.
L2, a2, b2=Measurement with μ applied. L2−L1=ΔLμ(L2 minus L1)=change in lightness and darkness(+=lighter,−=darker) a2−a1=Δaμ(a2 minus a1)=change in red and green(+=redder,−=greener) b2−b1=Δbμ(b2 minus b1)=change in yellow and blue(+=yellower,−=bluer)
With reference to the tables below and to FIG. 18, the three different patients (Patient A, Patient B, and Patient C) had new diagnosis of Congestive Heart Failure (CHF). Patient A, B, C have diastolic and systolic heart failure with an ejection fraction of 35% with normal coronary artery disease by angiography. All three patients were started on an angiotensin receptor blocker Valsartan and followed continuously every month for 9 months. The a, b, L were calculated before and after the “μ” has been applied shown in color red. The blue indicates the baseline. At the initiation of the CHF medication Valsartan, the patient has a normal response of the microvascular endothelium after the application of “μ” in the calculations of a, b, L. All colorimetric and spectrophotometric calculations are performed at the same location on the right arm, in the anterior position in all three patients continuously for 9 months. The titration of Valsartan was maximized in all three patients. […] This occurs because it is the desired effect of the CHF medication in the above patients over the period of 9 months. The current standard of care is to improve the heart function in CHF. The cardiologist lowers the ionotropic and chronotropic effect of the heart in CHF patients. The above methodology allows for the appropriate and desired effect in being able to titrate the medication and know how much medicine to administer to the patient by either decreasing or increasing the Valsartan dose. This is performed to achieve the necessary effect of pharmacotherapy with limiting the exacerbation of heart failure symptoms in such patients. It allows for healthcare providers to also know if the effects of the medications are adequate and they are in fact working appropriately on the microscopic endothelium level of the patient. As the months progressed in the patients above, the red line calculations indicate a decreased microvascular endothelial flow. This is evaluated by measuring a decrease in the a shift.
This correlates with a decrease in the ionotropic and chronotropic effect of the heart in these patients. This is the desired effect and outcome that the cardiologist is trying to achieve. The calculation of a, b, L, after “μ” is applied is objectively calculated in these CHF patients, allowing for the proper titration of maximum medication administration while limiting the side effects of the medications concurrently.

CCCCC(=O)N(Cc1ccc(-c2ccccc2-c2nnn[nH]2)cc1)[C@H](C(=O)O)C(C)C [Valsartan]
L (Wet) (Patient B, April 2017): 72.58
a. Wet after “μ” (Patient B, April 2017): 3.03
b (Wet) (Patient B, April 2017): 15.69
L (Wet) (Patient B, December 2016): 73.59
a. Wet after “μ” (Patient B, December 2016): 4.04
b (Wet) (Patient B, December 2016): 15.27
L (Wet) (Patient B, February 2017): 72.56
a. Wet after “μ” (Patient B, February 2017): 3.3
b (Wet) (Patient B, February 2017): 14.4
L (Wet) (Patient B, January 2017): 74.23
a. Wet after “μ” (Patient B, January 2017): 3.37
b (Wet) (Patient B, January 2017): 15.38
L (Wet) (Patient B, July 2017): 72.54
a. Wet after “μ” (Patient B, July 2017): 2.25
b (Wet) (Patient B, July 2017): 14.39
L (Wet) (Patient B, June 2017): 72.47
a. Wet after “μ” (Patient B, June 2017): 2.88
b (Wet) (Patient B, June 2017): 15.29
L (Wet) (Patient B, March 2017): 72.62
a. Wet after “μ” (Patient B, March 2017): 3.29
b (Wet) (Patient B, March 2017): 15.85
L (Wet) (Patient B, May 2017): 73.47
a. Wet after “μ” (Patient B, May 2017): 3.71
b (Wet) (Patient B, May 2017): 15.54
L (Wet) (Patient B, November 2016): 70.43
a. Wet after “μ” (Patient B, November 2016): 4.89 and 4.79
b (Wet) (Patient B, November 2016): 15.14
L (Patient C, April 2017): 73.05
a (Patient C, April 2017): 3.16
b (Patient C, April 2017): 16.12
L (Patient C, December 2016): 75.47
a (Patient C, December 2016): 2.84
b (Patient C, December 2016): 13.73
L (Patient C, February 2017): 73.55
a (Patient C, February 2017): 3.64
b (Patient C, February 2017): 14.96
L (Patient C, January 2017): 74.63
a (Patient C, January 2017): 3.93
b (Patient C, January 2017): 15.73
L (Patient C, July 2017): 75.00
a (Patient C, July 2017): 3.55
b (Patient C, July 2017): 14.75
L (Patient C, June 2017): 74.45
a (Patient C, June 2017): 3.44
b (Patient C, June 2017): 14.63
L (Patient C, March 2017): 74.06
a (Patient C, March 2017): 3.20
b (Patient C, March 2017): 14.54
L (Patient C, May 2017): 75.26
a (Patient C, May 2017): 3.50
b (Patient C, May 2017): 15.22
L (Patient C, November 2016): 73.84
a (Patient C, November 2016): 3.35
b (Patient C, November 2016): 14.01
L (Wet) (Patient C, April 2017): 72.89
a. Wet after “μ” (Patient C, April 2017): 2.95
b (Wet) (Patient C, April 2017): 17.26
L (Wet) (Patient C, December 2016): 72.57
a. Wet after “μ” (Patient C, December 2016): 4.84
b (Wet) (Patient C, December 2016): 14.8
L (Wet) (Patient C, February 2017): 72.41
a. Wet after “μ” (Patient C, February 2017): 3.07
b (Wet) (Patient C, February 2017): 15.66
L (Wet) (Patient C, January 2017): 74.12
a. Wet after “μ” (Patient C, January 2017): 3.18
b (Wet) (Patient C, January 2017): 15.31
L (Wet) (Patient C, July 2017): 74.72
a. Wet after “μ” (Patient C, July 2017): 2.3
b (Wet) (Patient C, July 2017): 14.39
L (Wet) (Patient C, June 2017): 72.13
a. Wet after “μ” (Patient C, June 2017): 2.75
b (Wet) (Patient C, June 2017): 15.6
L (Wet) (Patient C, March 2017): 73.55
a. Wet after “μ” (Patient C, March 2017): 3.05
b (Wet) (Patient C, March 2017): 13.67
L (Wet) (Patient C, May 2017): 73.69
a. Wet after “μ” (Patient C, May 2017): 3.1
b (Wet) (Patient C, May 2017): 15.17
L (Wet) (Patient C, November 2016): 71.42
a. Wet after “μ” (Patient C, November 2016): 4.99
b (Wet) (Patient C, November 2016): 14.01
effect on flow to the microvascular circulation of the endothelium (a shift after μ) (Patients A, B, C, at rest, over 9 months, maximized titration): a decrease in the flow to the microvascular circulation of the endothelium at rest
